Data reported in paper PMC12520178, “Turn-engineering tunes the conformational rigidity of β-hairpin AMPs in achieving membrane selectivity and killing drug-resistant ESKAPE pathogens” (Chemical Science, 2025).
Values after ≈ are worked out from the molar mass of the structure shown. Read-outs that look alike come from different tables or passages of the source. Where a SMILES comes first, the peptide text is derived from it. Bridges are numbered along the chain shown (N, C = ends). [ ]: non-standard residue; d: D form. NMeR = CN[C@@H](CCCNC(=N)N)C(=O)O; dNMeR = CN[C@H](CCCNC(=N)N)C(=O)O

What was measured:
Escherichia coli = assay type: cell-based
human red blood cells [1] = assay: Hemolysis assay against human red blood cells; conditions: ≥10% hemolysis against human RBCs; 4% (v/v) hRBCs in PBS, 1.5 h at 37 °C, 405 nm; n = 3
Staphylococcus aureus = assay: microbe, parasite or virus in culture; assay type: cell-based
[2] = Acute in-vivo toxicity assessment; conditions: mice
[3] = test system: polymyxin B-resistant A. baumannii; conditions: induced polymyxin B-resistant A. baumannii
Pseudomonas aeruginosa = assay type: cell-based
[4] = Rapid equilibrium dialysis (RED) plasma protein binding; conditions: plasma spiked with 100 μM peptide, buffer pH 7.4, 37 °C, 4 h, HPLC
Proteinase K = Proteinase K (Parengyodontium album, UniProt P06873); assay: Proteolytic digestion with Proteinase K; assay type: in vitro ADME; conditions: 100 µM peptide, 1X TBS pH 7.5, ratio 1:200, 37 °C, HPLC, 0 to 720 min
Protocol: Figure S15: Proteolytic degradation profiles of a. 4d and b. 4f after incubation with Proteinase K. The five overlaid chromatograms represent […] different time-points: 0 min, 2 min, 60 min, 480 min and 720 min. The identity of the peptide at different time points were monitored using MALDI-TO F.
Figure S16: a. PI uptake by A. baumannii and S. aureus, when treated with different concentrations of 4f for 10 min, monitored using flow-cytometry. b. SEM images of untreated control cells and 5 times of […]
Radial Distribution Function
The radial distribution function (g(r)) was computed to investigate the local density of specific lipid headgroups around key peptide residues. […]
The interaction energy between the peptide and membrane components was computed to quantify the binding affinity and identify the driving forces for the interaction. Using GROMACS, the production trajectories were re-analyzed by defining energy groups for the protein and different membrane components. […]
The metabolic stability of peptides (1,1d,1f and 3,3d,3f) were evaluated against two proteases-chymotrypsin and trypsin at a concentration of 100 µM. The metabolic stability of 4f was evaluated by incubating 100 µM of peptide with a more promiscuous enzyme i.e. Proteinase K. Peptides were incubated with different enzyme to peptide ratio for different time intervals at 37 ° C. […]

human red blood cells [5] = conditions: red cells of human
[6] = test system: human peripheral blood mononuclear cells (PBMCs); conditions: 24 h, 40
Acinetobacter baumannii = assay type: cell-based
[7] = test system: polymyxin B-resistant P. aeruginosa; conditions: induced polymyxin B-resistant P. aeruginosa
Klebsiella pneumoniae = assay type: cell-based
human red blood cells [8] = conditions: cited from earlier work
Source text: These motifs were chosen based on their ability to induce 81% (-D-Ala-NMeArg–) and 92% (-D-Val-NMeArg-) β-hairpin folded fractions within a 12-mer linear peptide in aqueous solution.[24]

[9] = against E. coli, microbroth dilution, 5x10^5 cfu/mL, 20-24 h at 37 °C, turbidity 600 nm, n = 5, median

Sequence of Proteinase K (P06873 106-384): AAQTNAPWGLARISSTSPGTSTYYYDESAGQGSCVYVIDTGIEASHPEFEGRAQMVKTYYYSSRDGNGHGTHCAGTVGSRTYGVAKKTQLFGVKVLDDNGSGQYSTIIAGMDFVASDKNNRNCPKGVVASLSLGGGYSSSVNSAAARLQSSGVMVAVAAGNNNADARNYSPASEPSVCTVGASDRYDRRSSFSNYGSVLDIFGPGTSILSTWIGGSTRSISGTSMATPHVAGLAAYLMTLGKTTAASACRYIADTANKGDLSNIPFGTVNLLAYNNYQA

SMILES | MIC90 (Escherichia coli; [9]) | MHC10 (μM), minimum hemolytic concentration (human red blood cells [1]) | MIC90 (Escherichia coli) | MIC (μM) ec (Escherichia coli) | MIC (μM) sa (Staphylococcus aureus) | signs of acute toxicity ([2]; 10 mg kg^−1, intraperitoneally, monitored till 72 h) | signs of acute toxicity ([2]; 20 mg kg^−1, intraperitoneally, at 48 h, transient) | signs of acute toxicity ([2]; 40 mg kg^−1, intraperitoneally) | mortality ([2]; 10, 20 and 40 mg kg^−1, intraperitoneally) | MIC [3] | MIC (μM) pa (Pseudomonas aeruginosa) | plasma protein binding [4] | protection against proteolysis (Proteinase K) | MHC10 (μM), minimum hemolytic concentration (human red blood cells [5]) | median viability of PBMCs [6] | MIC (μM) ab (Acinetobacter baumannii) | MIC [7] | MIC (μM) kp (Klebsiella pneumoniae) | hemolysis (toxicity) (human red blood cells [8])
CC[C@H](C)[C@@H]1NC(=O)[C@H](CCCNC(=N)N)N(C)C(=O)[C@@H](C)NC(=O)[C@H](Cc2ccc(O)cc2)NC(=O)[C@@H]2CSSC[C@H](NC1=O)C(=O)N[C@@H](Cc1ccc(O)cc1)C(=O)N[C@@H](CCCNC(=N)N)C(=O)N[C@@H](CCCNC(=N)N)C(=O)N[C@H](C(=O)N[C@@H](CCCNC(=N)N)C(N)=O)CSSC[C@H](NC(=O)[C@H](Cc1c[nH]c3ccccc13)NC(=O)[C@@H](N)CCCCN)C(=O)N[C@@H](Cc1ccccc1)C(=O)N[C@@H](CCCNC(=N)N)C(=O)N[C@@H](C(C)C)C(=O)N2 [4a] (H-KWCFRVCY[dA][NMeR]ICYRRCR-NH2; disulfide 3-16, 7-12) | 0.3 µM (≈ 0.688 µg/mL) | 12.5 µM | – | – | – | – | – | – | – | – | – | – | – | – | – | – | – | – | –
CC[C@H](C)[C@@H]1NC(=O)[C@H](CCCNC(=N)N)N(C)C(=O)[C@@H](C(C)C)NC(=O)[C@H](Cc2ccc(O)cc2)NC(=O)[C@@H]2CSSC[C@H](NC1=O)C(=O)N[C@@H](Cc1ccc(O)cc1)C(=O)N[C@@H](CCCNC(=N)N)C(=O)N[C@@H](CCCNC(=N)N)C(=O)N[C@H](C(=O)N[C@@H](CCCNC(=N)N)C(N)=O)CSSC[C@H](NC(=O)[C@H](Cc1c[nH]c3ccccc13)NC(=O)[C@@H](N)CCCCN)C(=O)N[C@@H](Cc1ccccc1)C(=O)N[C@@H](CCCNC(=N)N)C(=O)N[C@@H](C(C)C)C(=O)N2 [4b] (H-KWCFRVCY[dV][NMeR]ICYRRCR-NH2; disulfide 3-16, 7-12) | 0.2 µM (≈ 0.464 µg/mL) | 12.5 µM | – | – | – | – | – | – | – | – | – | – | – | – | – | – | – | – | –
CC[C@@H](C)[C@@H](NC(=O)[C@@H](CCCNC(=N)N)N(C)C(=O)[C@H](C)NC(=O)[C@@H](Cc1ccc(O)cc1)NC(=O)[C@H](NC(=O)[C@H](NC(=O)[C@@H](CCCNC(=N)N)NC(=O)[C@@H](Cc1ccccc1)NC(=O)[C@H](NC(=O)[C@@H](Cc1c[nH]c2ccccc12)NC(=O)[C@H](N)CCCCN)[C@H](C)O)C(C)C)[C@H](C)O)C(=O)N[C@@H](C(=O)N[C@H](Cc1ccc(O)cc1)C(=O)N[C@H](CCCNC(=N)N)C(=O)N[C@H](CCCNC(=N)N)C(=O)N[C@@H](C(=O)N[C@H](CCCNC(=N)N)C(N)=O)[C@H](C)O)[C@H](C)O [4f] (H-[dK][dW][dT][dF][dR][dV][dT][dY]A[dNMeR][dI][dT][dY][dR][dR][dT][dR]-NH2) | – | – | 0.4 µM (≈ 0.915 µg/mL) | 0.4 µM (≈ 0.915 µg/mL) | 0.8 µM (≈ 1.83 µg/mL) | no signs of toxicity | mild symptoms such as wrinkled skin and loss in body weight | Visible signs of toxicity such as wrinkled skin, poor motility, and loss in body weight | none of the doses led to mortality | 1.6 µM (≈ 3.66 µg/mL) | 1.2 µM (≈ 2.75 µg/mL) | very high plasma protein binding | total protection against proteolysis | 50 µM | ~85% | 1.6 µM (≈ 3.66 µg/mL) | 2.4 µM (≈ 5.49 µg/mL) | 1.6 µM (≈ 3.66 µg/mL) | –
CC(C)[C@@H]1NC(=O)CNC(=O)[C@H](CCCNC(=N)N)NC(=O)[C@H](C(C)C)NC(=O)[C@H](CCCNC(=N)N)NC(=O)[C@H](C)NC(=O)[C@H](Cc2ccc(O)cc2)NC(=O)[C@H](C(C)C)NC(=O)[C@@H](NC(=O)[C@H](Cc2c[nH]c3ccccc23)NC(=O)[C@@H](N)CCCNC(=N)N)CSSC[C@@H](C(=O)N[C@@H](Cc2c[nH]c3ccccc23)C(=O)O)NC(=O)[C@H](CCCNC(=N)N)NC(=O)[C@H](CCCNC(=N)N)NC(=O)[C@H](Cc2ccc(O)cc2)NC(=O)[C@H](CCCNC(=N)N)NC1=O [compound 1, reference compound] (H-RWCVYARVRGVRYRRCW-OH; disulfide 3-16) | – | – | 1.2 µM (≈ 2.74 µg/mL) | 1.2 µM (≈ 2.74 µg/mL) | 1.6 µM (≈ 3.65 µg/mL) | – | – | – | – | – | 3.12 µM (≈ 7.13 µg/mL) | – | – | – | – | 0.8 µM (≈ 1.83 µg/mL) | – | 0.8 µM (≈ 1.83 µg/mL) | no measurable hemolysis
